Data on six molecules can be found in patent publication US9962341B2, “Active pharmaceutical ingredient (API) comprising cannabinoids for use in the treatment of cancer” (GW Pharma Limited, priority 2014, dated 2018).

Like-named read-outs stand apart in the source and are kept apart here. Some results are limits rather than exact numbers.

The assay relates to SKBR3. The experiment in a line: Cell viability (CellTiter-Blue, 72 h), SKBR3 breast cancer cells. Format: cell-based. The following applies: for IC50: Homo sapiens; for effect (but only 50% effect): extent of effect reached. On the procedure: The cell lines tested in this Example were as follows. Breast cancer: MDA-MB-231; SK-BR3; and BT474. Liver cancer: HepG2.
The phytocannabinoids were tested alone and in various ratioed combinations in media containing final concentrations of 10% and 1% foetal bovine serum at 72 h for the breast and prostate cancer lines and 1% foetal bovine serum for the liver cancer line HepG2.
Each tumour cell line was maintained in vitro in RPMI 1640+10% heat inactivated FBS and 2 mM L-glutamine (growth media) at 37° C. in 5% CO2 and humidified conditions. The cells were harvested, washed, re-suspended into growth medium and counted. The cells were re-suspended into assay media (RPMI 1640+5% heat inactivated FBS+ and 2 mM L-glutamine) at 8×104-2×10^5 cells/ml (dependent upon cell type) and plated into the middle 240 wells of 384 well tissue culture plates (Corning CellBind, black-wall plates) 12.5 μl/well aliquots; 62.5 μl of growth media was aliquoted into the outer wells. There were 4 plates for each cell line. The plates were incubated overnight at 37° C., in 5% humidified CO2.
The phytocannabinoid test compounds were prepared in 100% DMSO vehicle at a stock concentration of 10 mM.
Starting with the 10 mM stock, the compounds were diluted to 125 μM in FBS-free growth media.
These were diluted in FBS-free growth media to 125 μM before serial dilution.
5 volumes of CBD 10 mM stock was added to 1 volume of the other agent (also at 10 mM) and 4 volumes of DMSO. This made a final concentration of 5 mM:1 mM. This was then diluted in FBS-free growth media so the top concentration of CBD would be 125 μM (before serial dilution). Each compound and compound combination stock was serially diluted in FBS-free growth media (containing 1.25% v/v DMSO) from 125 μM to 41.7, 13.89, 4.63, 1.54, 0.514, 0.171, 0.057 and 0.019 μM (1.25× final assay concentrations). Vehicle was prepared at equivalent dilutions in assay media. The top final concentration of compound in the assay was always 100 μM so CBD5:1CBG was 100 μM CBD and 20 μM CBG.
Taxotere SOC was prepared at a stock concentration of 1 mM in 100% DMSO. Taxotere was serially diluted from the stock solution into FBS-free growth media to 12.5 μM, then serially diluted in FBS-free growth media containing 1.25% DMSO to 4.17, 1.39, 0.46, 0.154, 0.051, 0.017, 0.006, 0.002 μM (1.25× final assay concentrations).
This was then serially diluted in FBS-free growth media to 0.417, 0.139, 0.046, 0.0154, 0.0051, 0.0017, 0.0006, 0.0002 μM (1.25× final assay concentrations). This was plated as a positive control for the SKBR3 & BT474 cell lines. 50 μl per well of compound/vehicle dilutions was added to the plates in replicates of 6. Where applicable total volume in the well was made up to 62.5 μl with assay media.
The plates were incubated for 72 h at 37° C. in 5% humidified CO2. To develop the plates, at 72 h, 10 μl of CellTiter-Blue™ reagent was added to each test/blank well. The plates were incubated at 37° C., 5% humidified CO2. Fluorescence was measured using a Flex II Station plate reader (570 nm excitation wavelength, 600 nm emission wavelength, 590 nm cut-off) after 3 h.
The experimental conditions were the same as the experiment above, with the same compound dilutions and volumes for plating but using growth media containing 10% FBS rather than FBS-free media.
The raw data values expressed in relative fluorescent units were normalised to the vehicle for each individual plate and any reduction in fluorescence indicated a decrease in viability.
The data were analysed in GraphPad PRISM using a non-linear sigmoidal plot with variable slope (asymmetric five point linear regression) and where possible an IC50 value for each single compound and combination was generated.
For the calculation, raw data values expressed in relative fluorescent units were normalised to the vehicle for each individual plate (set as 0%) and the reduction in fluorescence calculated as an increase in inhibition of viability.

Where [1] appears, read: SK-BR-3, 72 h, read-out: IC50 values, SKBR3, 1% FBS, 72 h.
The mark [2] stands for this setting: SK-BR-3, 72 h, read-out: IC50 values, SKBR3, 10% FBS, 72 h.
[3] abbreviates: SK-BR-3, read-out: Dm (median effect dose), SKBR3, 1% FBS, Calcusyn median-effect analysis.

For `C=C(C)[C@@H]1CCC(C)=C[C@H]1c1c(O)cc(CCCCC)cc1O` [CBD, Cannabidiol], the IC50 under setting [1] was 4 µM, the IC50 under setting [2] was 23 µM and the IC50 under setting [3] is 9.31 µM.
For the molecule `C=C(C)[C@@H]1CCC(C)=C[C@H]1c1c(O)cc(CCCCC)c(C(=O)O)c1O` [CBDA, Cannabidiolic acid], the IC50 under setting [1] was determined as 14.5 µM, the IC50 under setting [2] is roughly 100 µM and the IC50 under setting [3] is 30 µM.
Turning to `CCCCCc1cc(O)c(C/C=C(\C)CCC=C(C)C)c(O)c1` [CBG, Cannabigerol], the IC50 was 4 µM under setting [1], 33 µM under setting [2] and 8.55 µM under setting [3].
As to `CCCCCc1cc(O)c(C/C=C(\C)CCC=C(C)C)c(O)c1C(=O)O` [CBGA, Cannabigerolic acid], the IC50 is 10.6 µM under setting [1], greater than 100 µM under setting [2] and 16.8 µM under setting [3].
On the same counts, the results for `CCCc1cc(O)c2c(c1)OC(C)(C)[C@@H]1CCC(C)=C[C@@H]21` [THCV, Tetrahydrocannabivarin] are 10.8 µM, 30 µM and 18.3 µM.
With `CC(=O)O[C@@]12CO[C@@H]1C[C@H](O)[C@@]1(C)C(=O)[C@H](O)C3=C(C)[C@@H](OC(=O)[C@H](O)[C@@H](NC(=O)OC(C)(C)C)c4ccccc4)C[C@@](O)([C@@H](OC(=O)c4ccccc4)[C@H]21)C3(C)C` [Taxotere, Docetaxel, reference compound], the IC50 by setting is: under setting [1], less than 0.001 µM; under setting [2], less than 0.001 µM. For the same molecule, the “effect (but only 50% effect)” value is “only 50%” (SKBR3, 1% FBS) and 50% effect) (SKBR3, 10% FBS).
